{"source": "paper PMC11388056", "about": "(Clinical and Translational Science, 2024)", "key": {"[1]": {"assay": "Safety evaluation", "format": "in vivo, human (healthy adults)", "details": "part 1, treatments pooled"}, "[2]": {"details": "for futibatinib CL/F: arithmetic mean ± SD"}, "[3]": {"details": "cited from earlier work"}, "[4]": {"details": "cited from earlier work", "remark": "listed apart in the source"}, "[5]": {"test_system": "P‐glycoprotein (P‐gp)", "details": "in vitro; cited from earlier work"}, "[6]": {"assay": "clinical", "details": "human, plasma, 20 mg"}, "[7]": {"details": "participants with advanced solid tumors; cited from earlier work"}, "[8]": {"assay": "Safety evaluation", "format": "in vivo, human (healthy adults)", "details": "part 2; of a total of 27 TEAEs"}, "[9]": {"assay": "Phase I DDI study part 1: plasma rosuvastatin PK with and without futibatinib", "format": "in vivo, human (healthy adults)"}, "[10]": {"details": "for digoxin CL/F: arithmetic mean ± SD"}, "[11]": {"assay": "clinical", "details": "human, plasma, oral, geometric mean (geometric CV%), n = 20"}, "[12]": {"details": "with itraconazole; cited from earlier work"}, "[13]": {"details": "quinidine coadministration vs. futibatinib alone"}, "[14]": {"details": "after coadministration with futibatinib vs. rosuvastatin plus digoxin"}, "[15]": {"details": "digoxin + rosuvastatin, without futibatinib, arithmetic mean ± SD, 18 participants"}, "[16]": {"details": "digoxin + rosuvastatin, without futibatinib, median (min, max)"}}, "note": "Like-named read-outs stand apart in the source and are kept apart here. Marks after values point to notes of the source that are not given here.", "data": [{"smiles": "C=CC(=O)N1CC[C@H](n2nc(C#Cc3cc(OC)cc(OC)c3)c3c(N)ncnc32)C1", "note": "[futibatinib]", "values": [{"measurement": "TEAE diarrhea", "setting": "[1]", "result": 80, "unit": "%"}, {"measurement": "TEAE increased blood phosphate", "setting": "[1]", "result": 75, "unit": "%"}, {"measurement": "futibatinib CL/F", "setting": "[2]; futibatinib + quinidine, n = 15", "result": "34.3 ± 13.2", "unit": "L/h"}, {"measurement": "futibatinib AUCinf", "setting": "[2]; futibatinib + quinidine, geometric mean (geometric CV%), n = 15", "result": "627.0 (41.6) ng*h/mL"}, {"measurement": "futibatinib CL/F", "setting": "[2]; futibatinib alone, n = 24", "result": "43.1 ± 40.8", "unit": "L/h"}, {"measurement": "increase in futibatinib C max and AUC", "setting": "[2]; [13]", "result": "< 20", "unit": "%"}, {"measurement": "magnitude of increase in futibatinib AUC0–24", "setting": "[2]; [13]", "result": 16, "unit": "%"}, {"measurement": "magnitude of increase in futibatinib AUCinf (exposure)", "setting": "[2]; [13]", "result": 17, "unit": "%"}, {"measurement": "magnitude of increase in futibatinib C max", "setting": "[2]; [13]", "result": 8, "unit": "%"}, {"measurement": "futibatinib AUC0–24 GMR (90% CI)", "setting": "[2]; with vs. without quinidine", "result": "116.4 (95.4–142.1) %"}, {"measurement": "futibatinib AUCinf GMR (90% CI)", "setting": "[2]; with vs. without quinidine", "result": "117.0 (96.0–142.7) %"}, {"measurement": "futibatinib C max GMR (90% CI)", "setting": "[2]; with vs. without quinidine", "result": "108.0 (90.9–128.3) %"}, {"measurement": "difference in futibatinib exposure", "setting": "[3]; administered with or without lansoprazole", "result": "no significant differences"}, {"measurement": "futibatinib bioavailability lower", "setting": "[3]; fed versus fasted conditions, healthy participants", "result": 11.2, "unit": "%"}, {"measurement": "futibatinib exposure increased", "setting": "[4]; coadministered with itraconazole (dual P‐gp and CYP3A inhibitor)", "result": "41%–51%"}, {"measurement": "futibatinib exposure decreased", "setting": "[4]; coadministered with rifampin (dual P‐gp and CYP3A inducer)", "result": "53%–64%"}, {"measurement": "substrate of P‐gp", "setting": "[5]", "result": "substrate"}, {"measurement": "Vd/F", "setting": "[6]; oral", "result": "132 ± 72.2", "unit": "L"}, {"measurement": "half-life", "setting": "[6]; oral", "result": "2.5 ± 0.83", "unit": "h"}, {"measurement": "AUC(0-inf)", "setting": "[6]; oral, futibatinib AUCinf, futibatinib alone, geometric mean (geometric CV%), n = 24", "result": 582, "unit": "ng·h/mL"}, {"measurement": "AUC(0-t)", "setting": "[6]; po", "result": 580, "unit": "ng·h/mL"}, {"measurement": "terminal elimination half‐life (t ½)", "setting": "[7]", "result": "approximately 3 h"}]}, {"smiles": "C=C[C@H]1C[N@@]2CC[C@H]1C[C@@H]2[C@@H](O)c1ccnc2ccc(OC)cc12", "note": "[quinidine]", "values": [{"measurement": "TEAEs considered by the investigator to be related to the drug", "setting": "[8]", "result": 22, "unit": "events"}]}, {"smiles": "CC(C)c1nc(N(C)S(C)(=O)=O)nc(-c2ccc(F)cc2)c1/C=C/[C@@H](O)C[C@@H](O)CC(=O)O", "note": "[rosuvastatin]", "values": [{"measurement": "geometric mean rosuvastatin AUCs higher", "setting": "[9]; [14]", "result": "≤ 18.8", "unit": "%"}, {"measurement": "geometric mean rosuvastatin C max higher", "setting": "[9]; [14]", "result": 10.2, "unit": "%"}, {"measurement": "rosuvastatin CL/F", "setting": "[9]; digoxin + rosuvastatin with futibatinib, arithmetic mean ± SD", "result": "207.2 ± 105.7", "unit": "L/h"}, {"measurement": "rosuvastatin CL/F", "setting": "[9]; [15]", "result": "247.3 ± 167.2 ^c L/h"}, {"measurement": "rosuvastatin t ½", "setting": "[9]; [15]", "result": "16.7 ± 8.5 ^c h"}, {"measurement": "rosuvastatin T max", "setting": "[9]; [16]", "result": "4.0 (1.0, 6.1) h"}, {"measurement": "AUC(0-inf)", "setting": "[9]; human, plasma, oral, rosuvastatin AUCinf, digoxin + rosuvastatin, without futibatinib, geometric mean (geometric CV%), 18 participants", "result": 46.9, "unit": "ng·h/mL"}, {"measurement": "increase in rosuvastatin C max and AUC", "setting": "[9]; with vs. without futibatinib", "result": "< 20", "unit": "%"}, {"measurement": "rosuvastatin AUC0–72 GMR (90% CI)", "setting": "[9]; with vs. without futibatinib", "result": "118.8 (107.9–130.7) %"}, {"measurement": "rosuvastatin AUCinf GMR (90% CI)", "setting": "[9]; with vs. without futibatinib", "result": "113.5 (102.6–125.5) %"}, {"measurement": "rosuvastatin C max GMR (90% CI)", "setting": "[9]; with vs. without futibatinib", "result": "110.2 (97.3–124.8) %"}]}, {"smiles": "C[C@H]1O[C@@H](O[C@H]2[C@@H](O)C[C@H](O[C@H]3[C@@H](O)C[C@H](O[C@H]4CC[C@@]5(C)[C@H](CC[C@@H]6[C@@H]5C[C@@H](O)[C@]5(C)[C@@H](C7=CC(=O)OC7)CC[C@]65O)C4)O[C@@H]3C)O[C@@H]2C)C[C@H](O)[C@@H]1O", "note": "[digoxin]", "values": [{"measurement": "digoxin CL/F", "setting": "[10]; digoxin + rosuvastatin with futibatinib, 19 participants", "result": "14.6 ± 5.4 ^a L/h"}, {"measurement": "digoxin CL/F", "setting": "[10]; digoxin + rosuvastatin, without futibatinib", "result": "14.6 ± 4.1", "unit": "L/h"}, {"measurement": "digoxin T max", "setting": "[10]; [16]", "result": "1.0 (0.67, 2.0) h"}, {"measurement": "mean digoxin renal clearance lower", "setting": "[10]; digoxin administered with futibatinib vs. without", "result": 13, "unit": "%"}, {"measurement": "delay of median digoxin T max", "setting": "[10]; following digoxin, rosuvastatin and futibatinib vs. without futibatinib", "result": "~ 0.3 h"}, {"measurement": "difference in digoxin C max and AUC", "setting": "[10]; with and without futibatinib", "result": "< 20", "unit": "%"}, {"measurement": "digoxin AUC0–120 GMR (90% CI)", "setting": "[10]; with vs. without futibatinib", "result": "103.9 (94.5–114.2) %"}, {"measurement": "digoxin AUCinf GMR (90% CI)", "setting": "[10]; with vs. without futibatinib", "result": "100.2 (90.8–110.5) %"}, {"measurement": "digoxin C max GMR (90% CI)", "setting": "[10]; with vs. without futibatinib", "result": "95.1 (81.1–111.5) %"}, {"measurement": "digoxin CLr GMR (90% CI)", "setting": "[10]; with vs. without futibatinib", "result": "87.1 (80.8–93.9) %"}, {"measurement": "AUC(0-inf)", "setting": "[11]; digoxin AUCinf, digoxin + rosuvastatin, without futibatinib", "result": 17.7, "unit": "ng·h/mL"}, {"measurement": "Cmax", "setting": "[11]; digoxin C max, digoxin + rosuvastatin with futibatinib 20 mg once daily", "result": 0.953, "unit": "ng/mL"}]}, {"smiles": "CCN1C(=O)N(c2c(F)c(OC)cc(OC)c2F)Cc2cnc3[nH]c(CN4CCOCC4)cc3c21", "note": "[pemigatinib]", "values": [{"measurement": "increase in pemigatinib AUC", "setting": "[12]", "result": 88, "unit": "%"}, {"measurement": "increase in pemigatinib C max", "setting": "[12]", "result": 17, "unit": "%"}]}]}
